In the NIST ThermoML archive (doi:10.1021/je500804j):

Assay: mn = molality of the nth substance listed, in mol/kg
Conditions: 101 kPa, Liquid, Alternating current cell with electrodes

CCCCCCCC[N+](C)(C)CCCCCCCCCCCC[N+](C)(C)CCCCCCCC.[Br-].[Br-] + O
Conditions	electrical conductivity [S/m]
308.15 K, m1 = 0.01941	0.3482
308.15 K, m1 = 0.02017	0.3578
308.15 K, m1 = 0.02093	0.3674
308.15 K, m1 = 0.02167	0.3751
308.15 K, m1 = 0.0224	0.3838
308.15 K, m1 = 0.02312	0.3913
308.15 K, m1 = 0.02383	0.4003
308.15 K, m1 = 0.02453	0.4069
308.15 K, m1 = 0.02522	0.4161
308.15 K, m1 = 0.02589	0.421
308.15 K, m1 = 0.02722	0.4336
308.15 K, m1 = 0.02787	0.4365
308.15 K, m1 = 0.02851	0.4424
308.15 K, m1 = 0.02956	0.4571
308.15 K, m1 = 0.03058	0.4621
308.15 K, m1 = 0.03158	0.4749
308.15 K, m1 = 0.03256	0.48
308.15 K, m1 = 0.03351	0.489
308.15 K, m1 = 0.03536	0.5074
308.15 K, m1 = 0.03625	0.5158
308.15 K, m1 = 0.03712	0.5223
308.15 K, m1 = 0.03798	0.527
308.15 K, m1 = 0.03964	0.541
308.15 K, m1 = 0.04123	0.5548
308.15 K, m1 = 0.04275	0.5671
308.15 K, m1 = 0.04422	0.5777
308.15 K, m1 = 0.04563	0.5885
308.15 K, m1 = 0.04699	0.5986
308.15 K, m1 = 0.04829	0.6068
308.15 K, m1 = 0.05077	0.6251
308.15 K, m1 = 0.05194	0.6322
313.15 K, m1 = 0.00357	0.06951
313.15 K, m1 = 0.00692	0.1517
313.15 K, m1 = 0.01009	0.2177
313.15 K, m1 = 0.01308	0.2687
313.15 K, m1 = 0.01591	0.3262
313.15 K, m1 = 0.01726	0.3465
313.15 K, m1 = 0.01859	0.3645
313.15 K, m1 = 0.01987	0.3859
313.15 K, m1 = 0.02113	0.4024
313.15 K, m1 = 0.02187	0.4121
313.15 K, m1 = 0.02259	0.4248
313.15 K, m1 = 0.02331	0.4317
313.15 K, m1 = 0.02401	0.4367
313.15 K, m1 = 0.02471	0.4441
313.15 K, m1 = 0.02539	0.4521
313.15 K, m1 = 0.02606	0.4597
313.15 K, m1 = 0.02673	0.467
313.15 K, m1 = 0.02803	0.4808
313.15 K, m1 = 0.02866	0.4878
313.15 K, m1 = 0.02929	0.4944
313.15 K, m1 = 0.03052	0.5075
313.15 K, m1 = 0.03112	0.5138
313.15 K, m1 = 0.03171	0.5209
313.15 K, m1 = 0.0323	0.5266
313.15 K, m1 = 0.03326	0.5361
313.15 K, m1 = 0.03419	0.5442
313.15 K, m1 = 0.03511	0.5535
313.15 K, m1 = 0.036	0.5625
313.15 K, m1 = 0.03688	0.5732
313.15 K, m1 = 0.03774	0.5794
313.15 K, m1 = 0.03858	0.5898
313.15 K, m1 = 0.0394	0.5956
313.15 K, m1 = 0.041	0.6125
313.15 K, m1 = 0.04253	0.6257
313.15 K, m1 = 0.044	0.637
313.15 K, m1 = 0.04541	0.6512
313.15 K, m1 = 0.04678	0.665
313.15 K, m1 = 0.04809	0.6744
313.15 K, m1 = 0.04935	0.6838
313.15 K, m1 = 0.05057	0.6958
313.15 K, m1 = 0.05175	0.7055
318.15 K, m1 = 0.00371	0.07542
318.15 K, m1 = 0.00722	0.164
318.15 K, m1 = 0.01052	0.245
318.15 K, m1 = 0.01364	0.3143
318.15 K, m1 = 0.01659	0.3687
318.15 K, m1 = 0.01801	0.3868
318.15 K, m1 = 0.01939	0.4168
318.15 K, m1 = 0.02073	0.43
318.15 K, m1 = 0.02204	0.4546
318.15 K, m1 = 0.0228	0.465
318.15 K, m1 = 0.02356	0.4755
318.15 K, m1 = 0.02431	0.4857
318.15 K, m1 = 0.02577	0.5063
318.15 K, m1 = 0.02648	0.5133
318.15 K, m1 = 0.02718	0.5232
318.15 K, m1 = 0.02787	0.5323
318.15 K, m1 = 0.02856	0.5407
318.15 K, m1 = 0.02923	0.5499
318.15 K, m1 = 0.02989	0.5578
318.15 K, m1 = 0.03119	0.5732
318.15 K, m1 = 0.03245	0.5881
318.15 K, m1 = 0.03307	0.5997
318.15 K, m1 = 0.03368	0.6044
318.15 K, m1 = 0.03428	0.6091
318.15 K, m1 = 0.03488	0.6155
318.15 K, m1 = 0.03546	0.6234
318.15 K, m1 = 0.03604	0.6307
318.15 K, m1 = 0.03661	0.6379
318.15 K, m1 = 0.03717	0.6434
318.15 K, m1 = 0.03828	0.655
318.15 K, m1 = 0.03918	0.6646
318.15 K, m1 = 0.04006	0.6728
318.15 K, m1 = 0.04092	0.681
318.15 K, m1 = 0.04176	0.6915
318.15 K, m1 = 0.04259	0.6986
318.15 K, m1 = 0.04419	0.7143
318.15 K, m1 = 0.04573	0.732
318.15 K, m1 = 0.04721	0.7463
318.15 K, m1 = 0.04863	0.7603
318.15 K, m1 = 0.05001	0.7719
318.15 K, m1 = 0.05133	0.7858
323.15 K, m1 = 0.00357	0.08471
323.15 K, m1 = 0.00693	0.1849
323.15 K, m1 = 0.01009	0.2444
323.15 K, m1 = 0.01308	0.3157
323.15 K, m1 = 0.01591	0.3898
323.15 K, m1 = 0.01859	0.436
323.15 K, m1 = 0.02113	0.483
323.15 K, m1 = 0.02355	0.5236
323.15 K, m1 = 0.02585	0.561
323.15 K, m1 = 0.02803	0.5895
323.15 K, m1 = 0.02909	0.6082
323.15 K, m1 = 0.03012	0.623
323.15 K, m1 = 0.03113	0.6393
323.15 K, m1 = 0.03211	0.6494
323.15 K, m1 = 0.03307	0.6638
323.15 K, m1 = 0.03401	0.6772
323.15 K, m1 = 0.03512	0.6913
323.15 K, m1 = 0.03566	0.6951
323.15 K, m1 = 0.03619	0.6993
323.15 K, m1 = 0.03671	0.7037
323.15 K, m1 = 0.03775	0.7171
323.15 K, m1 = 0.03825	0.7266
323.15 K, m1 = 0.03875	0.7317
323.15 K, m1 = 0.03925	0.7354
323.15 K, m1 = 0.03973	0.7413
323.15 K, m1 = 0.04069	0.7517
323.15 K, m1 = 0.04116	0.7566
323.15 K, m1 = 0.04162	0.7617
323.15 K, m1 = 0.04208	0.7694
323.15 K, m1 = 0.04254	0.7737
323.15 K, m1 = 0.04328	0.7801
323.15 K, m1 = 0.04401	0.7896
323.15 K, m1 = 0.04472	0.8
323.15 K, m1 = 0.04542	0.8049
323.15 K, m1 = 0.04611	0.8129
323.15 K, m1 = 0.04678	0.8211
323.15 K, m1 = 0.04745	0.831
323.15 K, m1 = 0.0481	0.8348
323.15 K, m1 = 0.04936	0.8479
323.15 K, m1 = 0.05058	0.8638
323.15 K, m1 = 0.05176	0.8724
